In assay [1] the test system is mice. Kind of assay: Antagonism of selective opioid agonist-induced antinociception, intrathecal, modified tail flick assay. It counts as in vivo, mouse. The conditions noted are these: for norBNI antagonism of antinociception with co-administered dynorphin-A antiserum (DAS): FIG. 7, FIG. 8. For orientation: Thermal pain tests record how soon the animal reacts.
The subject of assay [2] is mouse vas deferens preparation. Kind of assay: Mouse vas deferens preparation (MVD). As for the experimental part: Mouse vasa deferentia are prepared using the method of Henderson, et al (see Henderson, G.; Hughes, J.; Kosterlitz, H. W., Br. J. Pharmacol. 1972, 46, 764-766). Male ICR mice (30-35 g) are killed by cervical dislocation. Both vasa deferentia are removed and mounted between platinum ring electrodes and placed in a 10-mL organ bath containing a modified Kreb's solution (NaCl, 118 mM; KCl, 4.70 mM;CaCl2, 2.52 mM; KH2PO4, 1.19 mM; NaHCO3, 25 mM; glucose, 11.48 mM; pH =7.4) at 37° C. The bath is continuously bubbled with a 95% O2, 5% CO2, gas mixture. One end of the vas deferens is attached to the electrode assembly, the other is attached to a Statham-Gould UC-3 isometric force transducer using 6.0 surgical silk. The vasa deferentia are stimulated transmurally with a Grass S44 stimulator (square waves of supramaximal voltage (70 V) for 1 msec and a frequency of 0.1 Hz). Resting tension is 200 mg. Vasa deferentia are stimulated continuously for 20 minutes before each experiment to allow equilibration to occur. The tissues are washed every 10 minutes during this period.

Assay [3] concerns guinea pig ileum preparation. Kind of assay: Guinea pig ileal longitudinal muscle preparation, electrically stimulated contraction. Conditions: guinea pig ilium preparation.
For assay [4], the system named is mice. Kind of assay: Tail-flick analgesia after intrathecal or intraventricular administration. Type of assay: in vivo, mouse. An excerpt: In the tail-flick assay which was modified for mice, the animal responses are made quantal by establishing and end point at the mean peak effect which represents an increase in the reaction time of an individual animal of greater than three S.D. of the control mean reaction time for all animals used in the group (see F. E. d'Amour et al., J. Pharmacol. Exp. Ther., 1941, 72, 7479; and J. J. Rady et al., J. Pharmacol Exp. Ther., 2000, 224, 93-101). Non-responding animals will be removed from the heat stimulus when reaction times exceed 3 seconds to avoid damage to their tails. At least 50 animals will be used to determine each peak time and ED50 dose-response curve. The ED50 and its 95% confidence interval are estimated using computer programs for both of these statistical procedures.

Setting [5] is: ED50 with nor-BNI / control ED50.
The mark [6] stands for this setting: agonist i.t. with antagonist BNTX 25 pmol/mouse i.t.
Where [7] appears, read: agonist i.t. with antagonist CTOP 5.9 pmol/mouse i.t.
[8] abbreviates: agonist i.t. with antagonist NTB 50 pmol/mouse i.t.
Setting [9] is: agonist i.t. with antagonist nor-BNI 2.5 nmol/mouse i.t.
Where [10] appears, read: intrathecal (i.t.) administration.

For the molecule `C[C@@H](NC(=O)[C@@H](N)Cc1ccc(O)cc1)C(=O)NCC(=O)N(C)[C@@H](Cc1ccccc1)C(=O)NCCO` [DAMGO, [D-Ala^2,N-Me-Phe^4,Gly-ol^5]enkephalin], the “Potency Ratio (95% C.I.)” value in the assay with mice [1] (ED50 with BNTX / control ED50) is reported as 1.50 (0.94-2.83); in the assay on mice [1] (ED50 with CTOP / control ED50) it was 9.89 (5.91-15.34); in the assay with mice [1] (ED50 with NTB / control ED50), 1.20 (0.61-3.26); with mice [1] (setting [5]), 26.26 (16.30-46.90). Moreover, the “norBNI antagonism of antinociception with co-administered dynorphin-A antiserum (DAS)” value in the assay with mice [1] is “little if any antagonism”. Moreover, the “ED50 (95% C.I.)” value in the assay on mice [1] (setting [6]) is given as 0.017 (0.012-0.027) nmol/mouse; in the assay with mice [1] (setting [7]), 0.112 (0.070-0.157) nmol/mouse; with mice [1] (setting [8]), 0.014 (0.008-0.027) nmol/mouse; in the assay on mice [1] (setting [9]), 0.283 (0.202-0.417) nmol/mouse. In the assay with mice [1] (i.t., mice), the “antagonism of antinociception by CTOP (μ antagonist), in words” value was “antagonized”. Also, the “antagonism of antinociception by nor-BNI (κ antagonist), in words” value in the assay on mice [1] (i.t., mice) was “antagonized”.
For the molecule `NC(N)=Nc1ccc2c3c([nH]c2c1)[C@@H]1Oc2c(O)ccc4c2[C@@]12CCN(CC1CC1)C(C4)[C@]2(O)C3` [compound 7, 6′-Guanidino-17-(cyclopropylmethyl)-6,7-didehydro-4,5α-epoxy-3,14-hydroxyindolo-[2′,3′:6,7]morphinian], in assay [2], the “agonist or antagonist activity in MVD” value was “inactive as an agonist or as an antagonist”. Also, the “antagonism of agonist effect by delta antagonist naltrindole (NTI)” value in assay [3] is listed as “non-competetively antagonized”. The molecule further came in with an analgesia in the assay with mice [4] (icv, concentration 20-fold that of the i.t. dose) of 20%. Besides, in the assay with mice [4] (setting [10]), the ED50 analgesia was 0.45 nmol/mouse and the “antagonism of i.t. analgesia by norBNI” value is reported as “could be antagonized by norBNI”. Moreover, the analgesic effect entry in the assay on mice [4] (intraventricular (icv), 10-fold higher concentration than i.t.) was “no analgesic effect”.
For the molecule [D-Pen^2,5]enkephalin [DPDPE], the “Potency Ratio (95% C.I.)” value is recorded as 10.61 (6.08-18.51) with mice [1] (ED50 with BNTX / control ED50), 1.43 (1.06-1.93) in the assay on mice [1] (ED50 with CTOP / control ED50), 0.98 (0.71-1.41) in the assay on mice [1] (ED50 with NTB / control ED50) and 12.44 (9.91-15.83) in the assay with mice [1] (setting [5]). Moreover, the “norBNI antagonism of antinociception with co-administered dynorphin-A antiserum (DAS)” value with mice [1] is listed as “failed to substantially reduce the potent norBNI antagonism”. The “ED50 (95% C.I.)” value with mice [1] (setting [6]) is 41.10 (26.44-60.95) nmol/mouse; in the assay on mice [1] (setting [7]), 5.11 (4.04-6.37)) nmol/mouse; with mice [1] (setting [8]) it was 3.44 (2.69-4.45) nmol/mouse; in the assay with mice [1] (setting [9]) it was 43.30 (36.40-51.59) nmol/mouse. In the assay on mice [1] (i.t., mice), the “antagonism of antinociception by BNTX, in words” value was “antagonized”. Besides, the “antagonism of antinociception by nor-BNI (κ antagonist), in words” value with mice [1] (i.t., mice) was “antagonized”.

Values taken from US20050004039A1, “Selective analgesic agents” (Regents of the University of Minnesota, priority 2002, published 2005).
